# Target: T1, tyrosinase (Mus musculus, UniProt P11344)
# T1 construct: the supernatant obtained constitutes the cell lysate used as tyrosinase source in the enzymatic assay; endogenous in cells; host or cells: B16F1 murine melanoma cells, cultured with alpha-MSH; detergent/ultrasound lysate supernatant
# T1 sequence (P11344 19-533): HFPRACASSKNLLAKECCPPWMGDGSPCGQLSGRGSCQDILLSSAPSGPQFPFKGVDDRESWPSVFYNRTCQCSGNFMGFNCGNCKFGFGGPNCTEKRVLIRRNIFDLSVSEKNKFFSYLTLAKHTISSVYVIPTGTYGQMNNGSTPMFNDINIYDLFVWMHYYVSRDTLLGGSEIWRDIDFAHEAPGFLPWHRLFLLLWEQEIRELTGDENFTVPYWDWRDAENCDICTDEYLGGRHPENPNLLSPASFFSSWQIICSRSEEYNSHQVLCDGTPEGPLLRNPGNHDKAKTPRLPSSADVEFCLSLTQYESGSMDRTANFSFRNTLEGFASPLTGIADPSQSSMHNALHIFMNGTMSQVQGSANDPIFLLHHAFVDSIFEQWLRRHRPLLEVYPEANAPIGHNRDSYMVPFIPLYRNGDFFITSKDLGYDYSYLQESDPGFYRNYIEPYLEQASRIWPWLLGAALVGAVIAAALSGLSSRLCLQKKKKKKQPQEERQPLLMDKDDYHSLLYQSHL
# Assay: Tyrosinase activity inhibition assay (B16F1 cell lysate, L-tyrosine substrate, MBTH, absorbance at 520 nm)
# Format: biochemical
# Conditions: lysate of B16F1 cells (murine melanoma line) as tyrosinase source; 37° C., reading at 520 nm after 6 hours; read-out: Tyrosine hydroxylase/Dopa oxidase IC50
# Protocol: The activity of the inhibitors is measured starting from a lysate of B16F1 cells (murine melanoma line). In the presence of the L-tyrosine substrate, the tyrosinase present in these cells catalyses the hydroxylation of L-tyrosine to give L-DOPA and then the oxidation of the L-DOPA to give dopaquinone. In the presence of MBTH (3-methyl-2-benzothiazolinone hydrazone), the dopaquinone is trapped so as to form a pink complex which absorbs at 520 nm.
# The B16F1 cells are cultured in DMEM medium+10% foetal calf serum+10^−9 M α-MSH for 4 days at 37° C. under 7% CO2. They are treated with trypsin, washed with PBS, counted and pelleted. The pellet is taken up at 10^7 cells/ml in lysis buffer (10 mM sodium phosphate, pH 6.8-1% Igepal) and the suspension is treated with ultrasound for 10 seconds. After centrifugation for 30 minutes at 4000 rpm, the supernatant obtained constitutes the cell lysate used as tyrosinase source in the enzymatic assay.
# The assays are carried out in duplicate in 384-well plates in a total volume of 50 μl. Each well contains:
# 40 μl of solution containing 1.25 mM L-tyrosine, 6.25 μM L-DOPA (cofactor) and 3.75 mM MBTH in buffer B (62.25 mM sodium phosphate, pH 6.8-2.5% dimethylformamide),
# 5 μl of inhibitor diluted in DMSO,
# 5 μl of cell lysate diluted to ½ in 50 mM Tris HCl buffer, pH 7.5.
# The plate is incubated at 37° C. and a spectrophotometric reading is carried out at 520 nm after incubating for 6 hours. To avoid any possible absorption of the products, the system uses corrected absorbance (absorbance at time 6 h−absorbance at time zero).
# The inhibitors are assayed in terms of dose-response so as to calculate an IC50 (dose which inhibits 50% of the enzymatic activity).
# Several internal controls are added to each experiment:
# control for 100% activity: the 5 μl of inhibitor are replaced with 5 μl of DMSO,
# control for 50% activity: the 5 μl of inhibitor are replaced with 5 μl of phenylthiourea at 300 μM in DMSO,
# control for 0% activity: the L-tyrosine substrate is replaced with buffer B.
row,Compound,IC50 [nM]
1,"O=C(O)c1ccc(-c2c[nH]c(=S)[nH]2)cc1 [Compound 3, 4-(4-Carboxyphenyl)-1,3-dihydroimidazole-2-thione]",200
2,"OCc1ccc(-c2c[nH]c(=S)[nH]2)cc1 [Compound 7, 4-(4-(Hydroxymethyl)phenyl)-1,3-dihydroimidazole-2-thione]",300
3,"FC(F)Oc1ccc(-c2c[nH]c(=S)[nH]2)cc1 [Compound 9, 4-(4-(Difluoromethoxy)phenyl)-1,3-dihydroimidazole-2-thione]",400
4,"COc1cccc(-c2c[nH]c(=S)[nH]2)c1 [Compound 11, 4-(3-Methoxyphenyl)-1,3-dihydroimidazole-2-thione]",1400

# Reference: patent US8119674B2, “4-phenylimidazole-2-thione tyrosinase inhibitors and pharmaceutical/cosmetic applications thereof” (Galderma Research & Development, priority 2007, dated 2012)
